Like-named read-outs stand apart in the source and are kept apart here.
How the values were obtained:
TF-VIIa = biological target: T1, TF-VIIa (Homo sapiens, UniProt P08709); assay: TF-VIIa Assay; format: biochemical
T1 construct: 2nM recombinant human factor VIIa; purchased American Diagnostica, Greenwich CT; host or cells: soluble TF made in house in E. coli

Human factor Xa = Human factor Xa (Homo sapiens, UniProt P00742)
[1] = read-out: IC50 or % Inhibition TF-VIIa (30 µM); cells given as a plain number (IC50)
[2] = cells given as a plain number (IC50); read-out: IC50 or % Inhibition TF-VIIa (30 µM)

Sequence of Human factor Xa (P00742 235-488 limits assumed): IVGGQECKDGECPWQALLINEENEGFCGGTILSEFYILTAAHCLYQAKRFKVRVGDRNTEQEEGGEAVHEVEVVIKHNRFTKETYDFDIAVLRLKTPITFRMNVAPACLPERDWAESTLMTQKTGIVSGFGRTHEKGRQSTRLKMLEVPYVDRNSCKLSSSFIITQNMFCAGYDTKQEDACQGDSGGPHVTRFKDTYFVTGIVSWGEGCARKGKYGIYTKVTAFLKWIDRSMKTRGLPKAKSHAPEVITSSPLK
Sequence of Human factor Xa (P00742 41-179 limits assumed): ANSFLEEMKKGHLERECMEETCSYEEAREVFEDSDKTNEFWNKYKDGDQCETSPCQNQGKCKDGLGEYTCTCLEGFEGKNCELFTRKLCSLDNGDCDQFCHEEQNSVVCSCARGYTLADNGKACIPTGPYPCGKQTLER
T1 sequence (P08709 213-466 limits assumed): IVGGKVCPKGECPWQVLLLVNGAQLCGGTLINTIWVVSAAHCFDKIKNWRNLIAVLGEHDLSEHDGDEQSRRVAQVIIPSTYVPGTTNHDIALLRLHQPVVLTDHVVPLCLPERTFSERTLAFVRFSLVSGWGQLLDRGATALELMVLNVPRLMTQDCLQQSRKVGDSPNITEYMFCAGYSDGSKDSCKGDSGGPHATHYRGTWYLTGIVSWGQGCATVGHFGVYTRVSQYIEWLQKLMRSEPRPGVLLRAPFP
T1 sequence (P08709 61-212 limits assumed): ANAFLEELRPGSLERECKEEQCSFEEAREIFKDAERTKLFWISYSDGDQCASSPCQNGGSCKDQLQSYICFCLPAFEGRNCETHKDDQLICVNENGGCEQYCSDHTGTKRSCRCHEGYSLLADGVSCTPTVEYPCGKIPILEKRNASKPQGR
T1 sequence (P13726 33-251 partner limits assumed): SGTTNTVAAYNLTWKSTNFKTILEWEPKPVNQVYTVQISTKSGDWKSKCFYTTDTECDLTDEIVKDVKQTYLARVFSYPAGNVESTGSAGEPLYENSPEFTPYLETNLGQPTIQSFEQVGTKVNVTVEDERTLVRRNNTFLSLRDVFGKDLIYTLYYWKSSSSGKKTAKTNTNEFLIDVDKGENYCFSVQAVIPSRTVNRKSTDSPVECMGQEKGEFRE

Structure (SMILES)	IC50 (TF-VIIa; [1]) [µM]	IC50 or % Inhibition Factor Xa (30 µM) (Human factor Xa) [%]	IC50 or % Inhibition TF-VIIa (30 µM) (TF-VIIa) [%]	IC50 (TF-VIIa; [2]) [µM]
COc1ccc(-c2c(Cl)nc(NCCN3CCOCC3)c(=O)n2CC(=O)NCc2ccc(C(=N)N)cc2)cc1 [1471-36]		6	11	
N=C(N)c1ccc(CNC(=O)Cn2c(-c3ccc4c(c3)OCO4)c(Cl)nc(NCc3ccncc3)c2=O)cc1 [1471-43]	25.3	18		
N=C(N)c1ccc(CNC(=O)Cn2c(-c3ccc4c(c3)OCO4)c(Cl)nc(NCCN3CCOCC3)c2=O)cc1 [1471-44]		13	34	
CCc1c(Cl)nc(NCc2ccncc2)c(=O)n1CC(=O)NCc1ccc(C(=N)N)cc1 [1471-59]	7.52	0		
CCc1c(Cl)nc(NCCN2CCOCC2)c(=O)n1CC(=O)NCc1ccc(C(=N)N)cc1 [1471-60]	13	0		
CCc1c(Cl)nc(NCCc2ccncc2)c(=O)n1CC(=O)NCc1ccc(C(=N)N)cc1 [1471-61]	5	0		
CCc1c(Cl)nc(NCCc2ccccc2)c(=O)n1CC(=O)NCc1ccc(C(=N)N)cc1 [1471-63]		2		3.45
CCc1c(Cl)nc(NCCc2cccnc2)c(=O)n1CC(=O)NCc1ccc(C(=N)N)cc1 [1471-64]	3.02	2		
N=C(N)c1ccc(CNC(=O)Cn2c(-c3ccc(-c4ccccc4)cc3)c(Cl)nc(NCc3ccncc3)c2=O)cc1 [1471-67]		16	12	
N=C(N)c1ccc(CNC(=O)Cn2c(-c3ccccc3)c(Cl)nc(NC3CCc4ccccc43)c2=O)cc1 (stereo not drawn) [1507-02]	9.4	9		
N=C(N)c1ccc(CNC(=O)Cn2c(-c3ccccc3)c(Cl)nc(NCCCn3ccnc3)c2=O)cc1 [1507-05]	4.7	10		
N=C(N)c1ccc(CNC(=O)Cn2c(-c3ccccc3)c(Cl)nc(NC3Cc4ccccc4C3)c2=O)cc1 [1507-08]		1	7	
N=C(N)c1ccc(CNC(=O)Cn2c(-c3ccccc3)c(Cl)nc(NCC(c3ccccc3)c3ccccc3)c2=O)cc1 [1507-09]	22.6	13		
N=C(N)c1ccc(CNC(=O)Cn2c(-c3ccccc3)c(Cl)nc(NC3CCCc4ccccc43)c2=O)cc1 (stereo not drawn) [1507-16]	5.8	18		
N=C(N)c1ccc(CNC(=O)Cn2c(-c3ccccc3)c(Cl)nc(NCCC3=CCCCC3)c2=O)cc1 [1507-17]	27.4	16		
N=C(N)c1ccc(CNC(=O)Cn2c(-c3ccccc3)c(Cl)nc(NCCCN3CCCC3=O)c2=O)cc1 [1507-19]	12.9	4		
N=C(N)c1ccc(CNC(=O)Cn2c(-c3ccccc3)c(Cl)nc(NC3CCC3)c2=O)cc1 [1507-21]		23		0.4
N=C(N)c1ccc(CNC(=O)Cn2c(-c3ccccc3)c(Cl)nc(NCc3ccccn3)c2=O)cc1 [1507-24]		15	0	
N=C(N)c1ccc(CNC(=O)Cn2c(-c3ccccc3)c(Cl)nc(NC(c3ccccc3)c3ccccc3)c2=O)cc1 [1507-35]	19.9	28		
N=C(N)c1ccc(CNC(=O)Cn2c(-c3ccccc3)c(Cl)nc(NCc3cc(C(F)(F)F)cc(C(F)(F)F)c3)c2=O)cc1 [1507-40]	5.7	11		
N=C(N)c1ccc(CNC(=O)Cn2c(-c3ccccc3)c(Cl)nc(NCC(F)(F)F)c2=O)cc1 [1507-41]		17	48	
CN(C)CCCNc1nc(Cl)c(-c2ccccc2)n(CC(=O)NCc2ccc(C(=N)N)cc2)c1=O [1507-47]		19		17.6
N=C(N)c1ccc(CNC(=O)Cn2c(-c3ccccc3)c(Cl)nc(NCC3COc4ccccc4O3)c2=O)cc1 (stereo not drawn) [1512-01]	18	4		

More lines, now with the values ahead:

IC50 (TF-VIIa; [1]) [µM]	IC50 or % Inhibition Factor Xa (30 µM) (Human factor Xa) [%]	IC50 or % Inhibition TF-VIIa (30 µM) (TF-VIIa) [%]	IC50 (TF-VIIa; [2]) [µM]	Structure (SMILES)
11.2	26			N=C(N)c1ccc(CNC(=O)Cn2c(-c3ccc(Cl)cc3)c(Cl)nc(NCCc3ccc(Cl)cc3)c2=O)cc1 [1471-18]
	26	33		N=C(N)c1ccc(CNC(=O)Cn2c(-c3ccc(Cl)cc3)c(Cl)nc(NCc3ccncc3)c2=O)cc1 [1471-19]
	34	42		N=C(N)c1ccc(CNC(=O)Cn2c(-c3ccc(Cl)cc3)c(Cl)nc(NCCN3CCOCC3)c2=O)cc1 [1471-20]
14.6	28			N=C(N)c1ccc(CNC(=O)Cn2c(-c3ccc(Cl)cc3)c(Cl)nc(NCCc3cccc(Cl)c3)c2=O)cc1 [1471-22]
	36		8.88	N=C(N)c1ccc(CNC(=O)Cn2c(-c3ccc(Cl)cc3)c(Cl)nc(NCCc3ccccc3)c2=O)cc1 [1471-23]
4.19	16			N=C(N)c1ccc(CNC(=O)Cn2c(-c3cccc(Cl)c3)c(Cl)nc(NCc3ccncc3)c2=O)cc1 [1471-27]
7.22	8			N=C(N)c1ccc(CNC(=O)Cn2c(-c3cccc(Cl)c3)c(Cl)nc(NCCN3CCOCC3)c2=O)cc1 [1471-28]
2.18	21			N=C(N)c1ccc(CNC(=O)Cn2c(-c3cccc(Cl)c3)c(Cl)nc(NCCc3ccncc3)c2=O)cc1 [1471-29]
0.83	41			N=C(N)c1ccc(CNC(=O)Cn2c(-c3cccc(Cl)c3)c(Cl)nc(NCCc3cccc(Cl)c3)c2=O)cc1 [1471-30]
	17		1.98	N=C(N)c1ccc(CNC(=O)Cn2c(-c3cccc(Cl)c3)c(Cl)nc(NCCc3ccccc3)c2=O)cc1 [1471-31]
1.19	25			N=C(N)c1ccc(CNC(=O)Cn2c(-c3cccc(Cl)c3)c(Cl)nc(NCCc3cccnc3)c2=O)cc1 [1471-32]
	22	31		COc1ccc(-c2c(Cl)nc(NCc3ccccc3)c(=O)n2CC(=O)NCc2ccc(C(=N)N)cc2)cc1 [1471-33]
17.5	24			COc1ccc(-c2c(Cl)nc(NCCc3ccc(Cl)cc3)c(=O)n2CC(=O)NCc2ccc(C(=N)N)cc2)cc1 [1471-34]
	22	37		COc1ccc(-c2c(Cl)nc(NCc3ccncc3)c(=O)n2CC(=O)NCc2ccc(C(=N)N)cc2)cc1 [1471-35]
	7	39		COc1ccc(-c2c(Cl)nc(NCCc3ccncc3)c(=O)n2CC(=O)NCc2ccc(C(=N)N)cc2)cc1 [1471-37]
	11	40		COc1ccc(-c2c(Cl)nc(NCCc3cccnc3)c(=O)n2CC(=O)NCc2ccc(C(=N)N)cc2)cc1 [1471-40]

IC50 (TF-VIIa; [1]) [µM]	IC50 or % Inhibition Factor Xa (30 µM) (Human factor Xa) [%]	IC50 or % Inhibition TF-VIIa (30 µM) (TF-VIIa) [%]	IC50 (TF-VIIa; [2]) [µM]	Structure (SMILES)
18.3	34			N=C(N)c1ccc(CNC(=O)Cn2c(-c3ccc4c(c3)OCO4)c(Cl)nc(NCc3ccccc3)c2=O)cc1 [1471-41]
10.5	15			N=C(N)c1ccc(CNC(=O)Cn2c(-c3ccc4c(c3)OCO4)c(Cl)nc(NCCc3ccc(Cl)cc3)c2=O)cc1 [1471-42]
13.2	24			N=C(N)c1ccc(CNC(=O)Cn2c(-c3ccc4c(c3)OCO4)c(Cl)nc(NCCc3ccncc3)c2=O)cc1 [1471-45]
13	21			N=C(N)c1ccc(CNC(=O)Cn2c(-c3ccc4c(c3)OCO4)c(Cl)nc(NCCc3cccc(Cl)c3)c2=O)cc1 [1471-46]
12.6	22			N=C(N)c1ccc(CNC(=O)Cn2c(-c3ccc4c(c3)OCO4)c(Cl)nc(NCCc3ccccc3)c2=O)cc1 [1471-47]
15.7	17			N=C(N)c1ccc(CNC(=O)Cn2c(-c3ccc4c(c3)OCO4)c(Cl)nc(NCCc3cccnc3)c2=O)cc1 [1471-48]
12.4	0			CCc1c(Cl)nc(NCCc2ccc(Cl)cc2)c(=O)n1CC(=O)NCc1ccc(C(=N)N)cc1 [1471-58]
	0	4		CCc1c(Cl)nc(NCCc2cccc(Cl)c2)c(=O)n1CC(=O)NCc1ccc(C(=N)N)cc1 [1471-62]
	12	10		N=C(N)c1ccc(CNC(=O)Cn2c(-c3ccc(-c4ccccc4)cc3)c(Cl)nc(NCCc3cccc(Cl)c3)c2=O)cc1 [1471-70]
	0	6		N=C(N)c1ccc(CNC(=O)Cn2c(-c3ccc(-c4ccccc4)cc3)c(Cl)nc(NCCc3ccccc3)c2=O)cc1 [1471-71]
	22	15		N=C(N)c1ccc(CNC(=O)Cn2c(-c3ccc(-c4ccccc4)cc3)c(Cl)nc(NCCc3cccnc3)c2=O)cc1 [1471-72]
3.6	21			N=C(N)c1ccc(CNC(=O)Cn2c(-c3ccccc3)c(Cl)nc(NCc3ccccc3Cl)c2=O)cc1 [1507-03]
	21		4.1	N=C(N)c1ccc(CNC(=O)Cn2c(-c3ccccc3)c(Cl)nc(NCCCCc3ccccc3)c2=O)cc1 [1507-43]
6	9			N=C(N)c1ccc(CNC(=O)Cn2c(-c3ccccc3)c(Cl)nc(NCCc3ccc(Cl)c(Cl)c3)c2=O)cc1 [1507-44]
	8		4.3	N=C(N)c1ccc(CNC(=O)Cn2c(-c3ccccc3)c(Cl)nc(NCc3ccc(Cl)cc3)c2=O)cc1 [1507-46]

— patent EP1202975B1, “SUBSTITUTED POLYCYCLIC ARYL AND HETEROARYL PYRAZINONES USEFUL FOR SELECTIVE INHIBITION OF THE COAGULATION CASCADE” (Pharmacia Corporation, priority 1999, dated 2000)
